Measured values: paper PMC10388305, “Synthesis and Evaluation of a Monomethyl Auristatin E—Integrin αvβ6 Binding Peptide–Drug Conjugate for Tumor Targeted Drug Delivery” (Journal of Medicinal Chemistry, 2023)
Entries after “also recorded” stand apart in the source; their conditions may differ.

Columns and labels:
MIA PaCa-2 (−) cells [1] = assay: Caspase-3/7 activity assay (ApoTox-Glo), MIA PaCa-2; type: cell-based; conditions: 250 nM (MMAE 10 nM, staurosporine 100 nM), 24, 48, 72 h
Protocol: (§1) Caspase-3/7 activity was analyzed using an ApoTox-Glo Triplex Assay kit. Cells were seeded in a 96 well plate at the same density and using the same respective media as described for the WST-1 assay and incubated overnight (37 °C, 5% CO2). DX3puroβ6 and DX3puro cells were treated with 1 nM of MMAE (free, non-targeted drug) or 0.625 nM of the other compounds: NH2-2, [^natCu]2, NH2-PDC-1, or [^natCu]PDC-1. BxPC-3 and MIA PaCa-2 cells were treated with 10 nM of MMAE or 250 nM of the other compounds: NH2-2, [^natCu]2, NH2-PDC-1, or [^natCu]PDC-1. All cells were treated with 100 nM of staurosporine as a positive control.[24] Untreated cells (media) were used as a measure of endogenous caspase-3/7 activity (normalized to 1). Cells were treated (n = 4/cell line/compound/time) for 24, 48, or 72 h (37 °C, 5% CO2) prior to washing. After treatment, the media was removed, cells were washed, and Caspase-Glo 3/7 reagent was added, and incubated for 1 h at room temperature. Caspase-3/7 activity was analyzed by measuring luminescence with a Fluoroskan FL microplate reader according to the manufacturer’s protocol.

DX3puro (−) cells [2] = assay: WST-1 cell viability assay, DX3puro; type: cell-based; conditions: up to 5 nM
Protocol: (§2) Peptides NH2-2 and [^natCu]2 were not toxic to any cells (Figure 3, gray and black, respectively).
(§3) Cell viability was measured after treatment with either NH2-2, [^natCu]2, MMAE (free, non-targeted drug), NH2-PDC-1, or [^natCu]PDC-1 in DX3puroβ6 (+) and DX3puro (−) cells at variable concentrations up to 5 nM, and in BxPC-3 (+) and MIA PaCa-2 (−) cells at variable concentrations up to 250 nM, or with MMAE at concentrations up to 10 nM. Cells were seeded in a 96 well plate at a density of 6000 cells/well for DX3puroβ6 and DX3puro, and at a density of 10,000 cells/well for BxPC-3 and MIA PaCa-2. DMEM media was used for all cells except for BxPC-3 (RPMI 1640 media). Cells (n = 6–8 wells/cell type/compound) were treated with different concentrations of NH2-2, [^natCu]2, MMAE, NH2-PDC-1, or [^natCu]PDC-1 dissolved in the respective media, as well as their respective media (no treatment) for 48 h (37 °C, 5% CO2), after which the media was removed; cells were washed twice with media (200 μL) and re-incubated in media (37 °C, 5% CO2) for 24 h. The media was then removed and the WST-1 reagent was added to each well, and the cells were incubated for 2 h at 37 °C. The 96 well plates were read at 450 nm by a Multiscan Ascent microplate reader. The percent cell viability was normalized to untreated cells (set as 100% viability) for each cell line.

BxPC-3 (+) cells [3] = assay: WST-1 cell viability assay, BxPC-3; type: cell-based
Protocol: as §2, §3

DX3puroβ6 (+) cells [4] = assay: WST-1 cell viability assay, DX3puroβ6; type: cell-based; conditions: for Fold more cytotoxic toward DX3puroβ6 (+) than DX3puro (−) cells: WST-1 EC50 ratio
Protocol: as §2, §3

BxPC-3 (+) cells [5] = assay: Caspase-3/7 activity assay (ApoTox-Glo), BxPC-3; type: cell-based; conditions: for Caspase-3/7 activity (in words): 250 nM (MMAE 10 nM, staurosporine 100 nM), 24, 48, 72 h; for Caspase-3/7 activity, fold increase: 250 nM, 48 h, untreated = 1, n = 4
Protocol: as §1

DX3puroβ6 (+) cells [6] = assay: Caspase-3/7 activity assay (ApoTox-Glo), DX3puroβ6; type: cell-based; conditions: for Caspase-3/7 activity (in words): DX3puroβ6 (+), 0.625 nM (MMAE 1 nM, staurosporine 100 nM), 24, 48, 72 h; for Caspase-3/7 activity, times higher: DX3puroβ6, 0.625 nM, 24 h, untreated = 1, n = 4
Protocol: as §1

DX3puro (−) cells [7] = assay: Caspase-3/7 activity assay (ApoTox-Glo), DX3puro; type: cell-based; conditions: 0.625 nM (MMAE 1 nM, staurosporine 100 nM), 24, 48, 72 h
Protocol: as §1

MIA PaCa-2 (−) cells [8] = assay: WST-1 cell viability assay, MIA PaCa-2; type: cell-based
Protocol: as §2, §3

DX3puro (−) tumors = assay: Therapy study, DX3puro (−) tumor-bearing mice; type: in vivo
Excerpt: (§4) Mice treated with [^natCu]PDC-1 had slower tumor growth compared to the groups receiving saline, non-drug bearing peptide [^natCu]2, or free, non-targeted MMAE (Figure 7). […] All mice in the groups treated with saline, non-drug bearing peptide [^natCu]2, or free, non-targeted MMAE had met an end point criterion (≥2 cm in any direction and/or tumor ulceration) by 56 days, 70 days, and 64 days from start of treatment, respectively, with all these groups having the same median survival of 37 days (Figure 7B).
Tumor xenografts were established by subcutaneous injection of either DX3puroβ6 or DX3puro cells (3 × 10^6 cells in 100 μL serum-free DMEM/animal) into the flank. The tumors were allowed to grow for 19 days before the start of treatment (day 0). […] Tumor volumes and body weights (to assess possible systemic toxicity) were measured starting on day 0, and once a week thereafter until the end of the study. Tumor volume (V) was determined according to the equation V = (π/6) × L × W × H, where L is the longest axis, W is the axis perpendicular to L, and H is perpendicular to the plane of L and W. End point determination criteria were: any axis >2 cm, active ulceration, or compromised health of the mouse (>20% loss of body weight from the start of the study). […] Survival curves were determined by Kaplan–Meier method.

DX3puroβ6 (+) tumors = assay: Therapy study, DX3puroβ6 (+) tumor-bearing mice; type: in vivo
Excerpt: as §4
Tumor xenografts were established by subcutaneous injection of either DX3puroβ6 or DX3puro cells (3 × 10^6 cells in 100 μL serum-free DMEM/animal) into the flank. The tumors were allowed to grow for 19 days before the start of treatment (day 0). Mice were treated with either (1) saline, (2) peptide ([^natCu]2), 6 mg/kg, 1.12 μmol/kg), (3) non-targeted drug (MMAE, 0.3 mg/kg, 0.42 μmol/kg), or (4) PDC ([^natCu]PDC-1, 6 mg/kg, 0.88 μmol/kg). Dosing of MMAE was 0.3 mg/kg as per maximum dose with no physiological response.[25] The [^natCu]PDC-1 treatment groups consisted of n = 10/tumor model, while all other groups (saline, [^natCu]2, and MMAE) consisted of n = 4/tumor model. All groups received four doses (on days 0, 3, 6, and 9) via i.v. tail vein injection of the above dose dissolved in saline (100 μL). The mean weights and standard deviation of each group was 25.9 ± 1.2 g (saline), 25.6 ± 1.5 g ([^natCu]2), 25.8 ± 2.5 g (MMAE), 24.9 ± 1.9 g ([^natCu]PDC-1, DX3puroβ6 tumors), and 25.7 ± 2.0 g ([^natCu]PDC-1, DX3puro tumors) at day 0. Tumor volumes and body weights (to assess possible systemic toxicity) were measured starting on day 0, and once a week thereafter until the end of the study. Tumor volume (V) was determined according to the equation V = (π/6) × L × W × H, where L is the longest axis, W is the axis perpendicular to L, and H is perpendicular to the plane of L and W. End point determination criteria were: any axis >2 cm, active ulceration, or compromised health of the mouse (>20% loss of body weight from the start of the study). All data are represented as the mean ± SD and are plotted beginning at day 0. Survival curves were determined by Kaplan–Meier method.

[9] = 48 h treatment + 24 h media, mean ± SD

Row | Compound | Caspase-3/7 activity (in words) (MIA PaCa-2 (−) cells [1]) | Cytotoxicity (in words), WST-1 (DX3puro (−) cells [2]) | Caspase-3/7 activity (in words) (BxPC-3 (+) cells [5]) | Caspase-3/7 activity (in words) (DX3puroβ6 (+) cells [6]) | Caspase-3/7 activity (in words) (DX3puro (−) cells [7]) | Fold more cytotoxic toward DX3puroβ6 (+) than DX3puro (−) cells (DX3puroβ6 (+) cells [4]) [fold] | Caspase-3/7 activity, fold increase (BxPC-3 (+) cells [5]) [fold] | Caspase-3/7 activity, times higher (DX3puroβ6 (+) cells [6]) [times] | other results
1 | NH2-C-αvβ6-BP [NH2-2] | no effect on caspase-3/7 activity | not toxic | no effect on caspase-3/7 activity | no effect on caspase-3/7 activity | no effect on caspase-3/7 activity | – | – | – | Cytotoxicity (in words), WST-1 (BxPC-3 (+) cells [3]; up to 250 nM): not toxic; Cytotoxicity (in words), WST-1 (DX3puroβ6 (+) cells [4]; DX3puroβ6 (+), up to 5 nM): not toxic; Cytotoxicity (in words), WST-1 (MIA PaCa-2 (−) cells [8]; MIA PaCa-2 (−), up to 250 nM): not toxic
2 | CN[C@@H]1C[C@H]2O[C@@](C)([C@@H]1OC)n1c3ccccc3c3c4c(c5c6ccccc6n2c5c31)C(=O)NC4 [staurosporine, reference compound] | increased caspase-3/7 activity | – | increased caspase-3/7 activity | increased caspase-3/7 activity | increased caspase-3/7 activity | – | – | – | –
3 | CC[C@H](C)[C@@H]([C@@H](CC(=O)N1CCC[C@H]1[C@H](OC)[C@@H](C)C(=O)N[C@H](C)[C@@H](O)c1ccccc1)OC)N(C)C(=O)[C@@H](NC(=O)[C@H](C(C)C)N(C)C(=O)OCc1ccc(NC(=O)[C@H](CCCNC(N)=O)NC(=O)[C@@H](NC(=O)CCOCCOCCNC(=O)CCN2C(=O)CC(SC[C@H](NC(=O)CN3CCN(CC(=O)O)CCN(CC(=O)O)CCN(CC(=O)O)CC3)C(=O)NCCOCCOCCOCCOCCOCCOCCOCCOCCOCCOCCOCCOCCOCCOCCOCCOCCOCCOCCOCCOCCOCCOCCOCCOCCOCCOCCOCCOCCC(=O)N[C@@H](CC(N)=O)C(=O)N[C@@H](C)C(=O)N[C@H](C(=O)N3CCC[C@H]3C(=O)N[C@@H](CC(N)=O)C(=O)N[C@@H](CC(C)C)C(=O)N[C@@H](CCCNC(=N)N)C(=O)NCC(=O)N[C@@H](CC(=O)O)C(=O)N[C@@H](CC(C)C)C(=O)N[C@@H](CCC(N)=O)C(=O)N[C@H](C(=O)N[C@@H](CC(C)C)C(=O)N[C@@H](C)C(=O)N[C@@H](CCC(N)=O)C(=O)N[C@@H](CCCNC(=N)N)C(=O)N[C@H](C(=O)N[C@@H](C)C(=O)N[C@@H](CCCNC(=N)N)C(=O)N[C@H](C(=O)NCCOCCOCCOCCOCCOCCOCCOCCOCCOCCOCCOCCOCCOCCOCCOCCOCCOCCOCCOCCOCCOCCOCCOCCOCCOCCOCCOCCOCCC(N)=O)[C@@H](C)O)C(C)C)C(C)C)C(C)C)C2=O)C(C)C)cc1)C(C)C (some centres unmarked) [[^natCu]PDC-1, metal not drawn] | slight increase | no observable cytotoxic effects | – | – | no observed change | > 86 | > 3 | > 5 | Median survival (DX3puro (−) tumors; 6 mg/kg i.v. on days 0, 3, 6, 9, n = 10): 49 days; Time at which all mice had reached an end point (DX3puro (−) tumors; from start of treatment): 95 days; Median survival (DX3puroβ6 (+) tumors; DX3puroβ6 (+) tumors, 6 mg/kg i.v. on days 0, 3, 6, 9, n = 10): 77 days; Mean tumor volume, times smaller than all other treatment groups (saline, [natCu]2, MMAE) (DX3puroβ6 (+) tumors; day 37): > 4 times; Mean tumor volume, times smaller than equally treated DX3puro (−) tumors (DX3puroβ6 (+) tumors; day 37, P = 0.0099): > 2.75 times; Body weight / systemic toxicity (in words) (DX3puroβ6 (+) tumors; four doses of 6 mg/kg i.v., body weight weekly, all groups compared, 6 mg/kg): No significant differences; also recorded: did not cause adverse systemic side-effects; Median survival, fold longer than other treatment groups (DX3puroβ6 (+) tumors; vs saline, [natCu]2, MMAE (37 days)): > 2 fold; Concentration required for noticeable cytotoxic effects (MIA PaCa-2 (−) cells [8]; MIA PaCa-2, WST-1): ≥ 250 nM
4 | CC[C@H](C)[C@@H]([C@@H](CC(=O)N1CCC[C@H]1[C@H](OC)[C@@H](C)C(=O)N[C@H](C)[C@@H](O)c1ccccc1)OC)N(C)C(=O)[C@@H](NC(=O)[C@H](C(C)C)N(C)C(=O)OCc1ccc(NC(=O)[C@H](CCCNC(N)=O)NC(=O)[C@@H](NC(=O)CCOCCOCCNC(=O)CCN2C(=O)CC(SC[C@H](N)C(=O)NCCOCCOCCOCCOCCOCCOCCOCCOCCOCCOCCOCCOCCOCCOCCOCCOCCOCCOCCOCCOCCOCCOCCOCCOCCOCCOCCOCCOCCC(=O)N[C@@H](CC(N)=O)C(=O)N[C@@H](C)C(=O)N[C@H](C(=O)N3CCC[C@H]3C(=O)N[C@@H](CC(N)=O)C(=O)N[C@@H](CC(C)C)C(=O)N[C@@H](CCCNC(=N)N)C(=O)NCC(=O)N[C@@H](CC(=O)O)C(=O)N[C@@H](CC(C)C)C(=O)N[C@@H](CCC(N)=O)C(=O)N[C@H](C(=O)N[C@@H](CC(C)C)C(=O)N[C@@H](C)C(=O)N[C@@H](CCC(N)=O)C(=O)N[C@@H](CCCNC(=N)N)C(=O)N[C@H](C(=O)N[C@@H](C)C(=O)N[C@@H](CCCNC(=N)N)C(=O)N[C@H](C(=O)NCCOCCOCCOCCOCCOCCOCCOCCOCCOCCOCCOCCOCCOCCOCCOCCOCCOCCOCCOCCOCCOCCOCCOCCOCCOCCOCCOCCOCCC(N)=O)[C@@H](C)O)C(C)C)C(C)C)C(C)C)C2=O)C(C)C)cc1)C(C)C (some centres unmarked) [NH2-PDC-1] | no significant increase | – | – | – | no observed change | > 31 | > 3 | > 5 | EC50 (DX3puro (−) cells [2]; [9]): > 5 nM; EC50 (BxPC-3 (+) cells [3]; [9]): 222 ± 114 nM; EC50 (DX3puroβ6 (+) cells [4]; DX3puroβ6 (+), 48 h treatment + 24 h media, mean ± SD): 0.159 ± 0.014 nM; EC50 (MIA PaCa-2 (−) cells [8]; MIA PaCa-2 (−), 48 h treatment + 24 h media, up to 250 nM (MMAE up to 10 nM), mean ± SD): > 250 nM
